These results are taken from patent US20190038588A1, “NOVEL CLASS OF COMPOUNDS FOR THE TREATMENT OF CARDIOVASCULAR DISEASE” (STICHTING KATHOLIEKE UNIVERSITEIT, priority 2016, published 2019).

The IC50 is the midpoint of a concentration-inhibition curve.

One experiment concerns the target T1, HMG-CoA reductase (Homo sapiens, UniProt P04035).
T1 sequence (P04035 1-888): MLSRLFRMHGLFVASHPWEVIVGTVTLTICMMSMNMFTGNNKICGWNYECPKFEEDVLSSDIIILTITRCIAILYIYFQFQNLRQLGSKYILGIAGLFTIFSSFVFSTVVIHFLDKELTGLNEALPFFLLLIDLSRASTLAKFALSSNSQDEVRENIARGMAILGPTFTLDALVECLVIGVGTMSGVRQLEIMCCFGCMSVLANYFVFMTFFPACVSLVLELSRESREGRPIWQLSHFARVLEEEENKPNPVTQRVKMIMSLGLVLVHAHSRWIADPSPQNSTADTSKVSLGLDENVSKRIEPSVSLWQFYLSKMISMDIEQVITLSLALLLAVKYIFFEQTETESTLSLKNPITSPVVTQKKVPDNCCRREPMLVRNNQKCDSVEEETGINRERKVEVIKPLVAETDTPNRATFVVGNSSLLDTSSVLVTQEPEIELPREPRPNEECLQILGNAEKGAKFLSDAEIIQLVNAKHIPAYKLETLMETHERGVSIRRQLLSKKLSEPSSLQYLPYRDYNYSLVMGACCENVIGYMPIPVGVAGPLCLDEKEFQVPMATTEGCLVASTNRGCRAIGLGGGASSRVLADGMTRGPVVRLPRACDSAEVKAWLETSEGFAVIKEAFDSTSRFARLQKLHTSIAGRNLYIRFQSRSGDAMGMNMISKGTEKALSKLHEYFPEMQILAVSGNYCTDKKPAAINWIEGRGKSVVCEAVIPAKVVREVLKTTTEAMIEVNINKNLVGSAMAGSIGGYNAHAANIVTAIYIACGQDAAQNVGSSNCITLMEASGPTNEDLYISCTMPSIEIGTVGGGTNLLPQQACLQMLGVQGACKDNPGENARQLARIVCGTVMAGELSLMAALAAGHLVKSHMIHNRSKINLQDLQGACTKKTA
The settings on record: Kajinami K, 2003; Istvan ES, 2001; cited from earlier work.

Experiment [1] has as its target T2, mitochondrial complex III (Mus musculus, UniProt P00158).
T2 construct: the supernatant containing the mitochondria was pelleted at 14,000 g; endogenous in cells; host or cells: C2C12 cells, mitochondrial fraction
Nature of the experiment: Complex III enzyme activity in mitochondrial fractions of C2C12 cells (cytochrome c reduction at 550 nm). The class given is biochemical. The following applies: compound at 100 μM; background by antimycin A (2.5 μM); n = 3 independent experiments. As to the method:
C2C12 pellets of 20·10^6 cells were snap frozen in liquid nitrogen and kept at −80° C. until use. For preparation of the mitochondrial fractions, tissues and cells were homogenized, resuspended in 10 mM Tris-HCl (pH 7.6), and snap frozen in aliquots as follows: cells were resuspended in 10 mM Tris-HCl and pottered, and sucrose was added (215 mM). The lysate was cleared of unbroken cells by centrifugation (10 minutes 600 g) after which the supernatant containing the mitochondria was pelleted at 14,000 g for 10 minutes, resuspended in 10 mM Tris-HCl (pH 7.6), and snap frozen in aliquots. Complex III enzyme activity was measured spectrophotometrically in duplicate as described before by determination of the cytochrome c reduction at 550 nm (Janssen et al., 2007; Mourmans et al., 1997; Rodenburg, 2011). For these measurements the following substrates were used: decylubiquinol (300 μM) and cytochrome c (50 μM). Background substraction was based on decylubiquinol auto-oxidation rates for FIG. 2, and on antimycin A (2.5 μM) for table 4. The enzyme activity was determined using the linear domain of the curve. These experiments were generally performed in small reaction volumes to increase throughput. Experiments in larger reaction volumes can improve reliability of obtained values, and are planned.

The target in experiment [2] is T3, catalytic domain of the human HMG-CoA reductase (Homo sapiens, UniProt P04035).
T3 construct: containing the catalytic domain of the human HMG-CoA reductase; purchased Sigma-Aldrich CS-1090
T3 sequence (P04035 426-888 limits assumed): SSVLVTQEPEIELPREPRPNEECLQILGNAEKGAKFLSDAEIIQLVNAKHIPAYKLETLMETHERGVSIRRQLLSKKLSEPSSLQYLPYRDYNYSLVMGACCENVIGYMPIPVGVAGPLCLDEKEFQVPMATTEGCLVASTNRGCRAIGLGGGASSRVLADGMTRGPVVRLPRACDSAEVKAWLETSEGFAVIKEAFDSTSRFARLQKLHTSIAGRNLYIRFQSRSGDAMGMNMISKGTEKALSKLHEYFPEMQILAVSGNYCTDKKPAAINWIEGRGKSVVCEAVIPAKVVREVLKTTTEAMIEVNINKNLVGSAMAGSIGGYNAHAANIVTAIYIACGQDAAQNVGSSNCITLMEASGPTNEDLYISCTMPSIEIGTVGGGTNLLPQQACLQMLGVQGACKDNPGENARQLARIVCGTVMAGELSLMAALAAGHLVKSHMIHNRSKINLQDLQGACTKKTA
Nature of the experiment: HMG-CoA reductase activity and inhibition assay (Sigma CS-1090 kit, NADPH oxidation at 340 nm). The class given is biochemical. The following applies: compound at 300 nM; n = 3 independent experiments. As to the method:
The human HMG-CoA reductase activity and inhibition assays were performed using the HMG-CoA reductase Assay Kit from Sigma-Aldrich (Sigma CS-1090), containing the catalytic domain of the human HMG-CoA reductase. Enzyme activity was determined spectrophotometrically, measuring the oxidation of NADPH at 340 nm. The reaction mixture contained: 0.13 mM HMG-CoA, HMG-CoA reductase, and 50 mM Tris-HCl, (pH 7.5). After 15 min incubation at 37° C., the reaction was started with the addition of 0.13 mM NADPH, and monitored for 30 min. The enzyme activity was determined using the linear domain of the curve. These experiments were generally performed in small reaction volumes to increase throughput. Experiments in larger reaction volumes can improve reliability of obtained values, and are planned.

Marks after values point to notes of the source that are not given here.

As for `O=C(O)C[C@H](O)C[C@H](O)/C=C/c1c(C2CC2)nc2ccccc2c1-c1ccc(F)cc1` [pitavastatine], the IC50 at HMG-CoA reductase is 7 nM.
Consider `CC(C)c1nc(N(C)S(C)(=O)=O)nc(-c2ccc(F)cc2)c1/C=C/[C@@H](O)C[C@@H](O)c1nc(=O)o[nH]1` [rosuvastatin nor-oxo-oxadiazole, N-(5-((3S,5R,E)-3,5-dihydroxy-5-(5-oxo-2,5-dihydro-1,2,4-oxadiazol-3-yl)pent-1-en-1-yl)-4-(4-fluorophenyl)-6-isopropylpyrimidin-2-yl)-N-methylmethane-sulfonamide], for which the “complex III activity (% of control) Mean (SEM)” value in experiment [1] is 143.50 (15.67) % of control. Further, the “HMGR activity (% of control) Mean (SEM)” value in experiment [2] was 100.30 (7.82)^a % of control.
